Data taken from publication PMC4467461, “Small-molecule activation of SERCA2a SUMOylation for the treatment of heart failure” (Nature Communications, 2015).

Biological target: T1, SUMO E1 (Homo sapiens, UniProt Q9UBE0+Q9UBT2)
T1 construct: purchased R&D Systems
T1 sequence (Q9UBE0 1-346): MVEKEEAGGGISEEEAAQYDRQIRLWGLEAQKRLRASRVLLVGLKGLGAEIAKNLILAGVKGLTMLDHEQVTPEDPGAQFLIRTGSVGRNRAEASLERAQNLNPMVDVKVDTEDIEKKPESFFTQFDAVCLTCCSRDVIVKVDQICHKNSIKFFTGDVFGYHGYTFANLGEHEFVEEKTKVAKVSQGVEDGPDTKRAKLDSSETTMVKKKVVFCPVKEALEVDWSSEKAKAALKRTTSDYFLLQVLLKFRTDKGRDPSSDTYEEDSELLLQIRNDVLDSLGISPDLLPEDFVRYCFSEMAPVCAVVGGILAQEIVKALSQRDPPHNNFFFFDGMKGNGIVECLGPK
T1 sequence (Q9UBT2 1-640): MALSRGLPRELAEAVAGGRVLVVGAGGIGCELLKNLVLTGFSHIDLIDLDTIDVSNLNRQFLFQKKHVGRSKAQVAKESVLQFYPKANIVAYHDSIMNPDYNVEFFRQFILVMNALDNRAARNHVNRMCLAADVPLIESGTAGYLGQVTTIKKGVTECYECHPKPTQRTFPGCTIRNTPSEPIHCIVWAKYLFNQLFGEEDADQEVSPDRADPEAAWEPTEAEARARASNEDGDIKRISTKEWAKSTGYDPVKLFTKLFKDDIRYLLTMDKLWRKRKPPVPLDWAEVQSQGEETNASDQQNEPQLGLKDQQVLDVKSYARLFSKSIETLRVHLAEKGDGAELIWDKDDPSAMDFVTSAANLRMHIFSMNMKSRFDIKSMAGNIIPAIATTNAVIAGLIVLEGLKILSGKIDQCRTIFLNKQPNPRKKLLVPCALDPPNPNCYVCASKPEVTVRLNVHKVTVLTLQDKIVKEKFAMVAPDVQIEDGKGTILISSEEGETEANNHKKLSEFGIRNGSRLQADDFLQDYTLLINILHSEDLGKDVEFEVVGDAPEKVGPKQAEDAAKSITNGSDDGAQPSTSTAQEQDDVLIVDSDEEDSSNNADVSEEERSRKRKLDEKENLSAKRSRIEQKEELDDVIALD
Experiment: In-vitro E1-SUMO-1 and E1-dependent E2-SUMO-1 thioester formation (gel shift / western blot)
Assay type: biochemical
Method: Figure 3 SUMO-specific activating enzyme, E1, is a direct target of N106. Mechanism of action of N106 on individual steps in the SUMOylation cascade in vitro. (a) Inorganic pyrophosphate resulting from ATP hydrolysis in E1-catalysed SUMO-1 activation in the presence of increasing concentration of N106 compound was assessed by fluorogenic pyrophosphate assay kit. Recombinant human SUMO-specific E1 (0.05 μM), human Ubc9 (0.25 μM), human SUMO-1 (12.5 μM) and ATP (1 mM) were incubated with increasing concentration of N106 for 30 min at 37 °C and quantified using a fluorescence microplate reader. (b) The SAE2-SUMO-1 conjugation was detected followed by western blotting with anti-SAE2 antibodies. SUMO E1 (0.05 μM), SUMO-1 (12.5 μM) and ATP (1 mM) were co-incubated with increasing concentration of N106 for 30 min at 37 °C. The reaction mixtures were separated on 7.5% SDS–PAGE gel under non-reducing conditions. (c) E2-SUMO-1 conjugation was visualized by western blotting with anti-Ubc9 antibody. SUMO E1 (0.05 μM), Ubc9 (0.25 μM), SUMO-1 (12.5 μM) and ATP (1 mM) were incubated without or with increasing concentration of N106 for 30 min at 37 °C. […] (e) ATP hydrolytic activity of WT and mutant SUMO E1 are determined. (f) The E1-SUMO-1 conjugation was detected followed by western blot analysis with anti-SAE2 antibody. *The SAE2-SUMO-1 conjugated bands. […]
Biochemical activity of SUMO-specific E1 enzymes was examined by ATPase assay and in-vitro gel-shifting assays. ATP hydrolysis activity of E1 enzymes was measured by using pyrophosphate assay kit (Abcam Inc.). […] The E1-thioester formation was analysed in reaction mixtures containing 0.05 μM E1, 12.5 μM SUMO-1 and 1 mM ATP with N106 or DMSO. The E1-dependent E2-SUMO-1 thioester formation was assessed using reaction containing 0.05 μM E1, 0.25 μM E2, 12.5 μM SUMO-1 and 1 mM ATP with N106 or DMSO. Assays were incubated at 37 °C for 30 min and were mixed with non-reducing sample buffer, and analysed in non-reducing condition. Western blotting using antibodies against SAE2 and Ubc9 detected the SUMO conjugations. […]

Structure (SMILES): COc1ccc(-c2nnc(Nc3nc4c(OC)cccc4s3)o2)cc1 [Compound N106, N-(4-methoxybenzo[d]thiazol-2-yl)-5-(4-methoxyphenyl)-1,3,4-oxadiazol-2-amine]
- maximal tolerated doses for in-vitro thioester formation between the SUMO E1 and SUMO-1 (30 min at 37 °C): ~20 µM
- SUMO-1 conjugation to SUMO E1 and E1-dependent thioester bond formation between SUMO E2 and SUMO-1 (at 50 μM concentration): less pronounced
- SUMO-1 conjugation to SUMO E1 and E1-dependent thioester bond formation between SUMO E2 and SUMO-1 (at over 100 μM concentration): inhibited
